Reference: US20250186408A1, “TREATMENT OF PHARMACORESISTANT EPILEPSY” (Katholieke Universiteit Leuven, priority 2021, published 2025)

Key:
Format in all cases: cell-based
[1] = biological target: T1, GR (Homo sapiens, UniProt P04150); experiment: NHR Protein Interaction GR Agonist
T1 construct: enzyme fragment for PathHunter enzyme fragment complementation (EFC)
T1 sequence (P04150 1-777): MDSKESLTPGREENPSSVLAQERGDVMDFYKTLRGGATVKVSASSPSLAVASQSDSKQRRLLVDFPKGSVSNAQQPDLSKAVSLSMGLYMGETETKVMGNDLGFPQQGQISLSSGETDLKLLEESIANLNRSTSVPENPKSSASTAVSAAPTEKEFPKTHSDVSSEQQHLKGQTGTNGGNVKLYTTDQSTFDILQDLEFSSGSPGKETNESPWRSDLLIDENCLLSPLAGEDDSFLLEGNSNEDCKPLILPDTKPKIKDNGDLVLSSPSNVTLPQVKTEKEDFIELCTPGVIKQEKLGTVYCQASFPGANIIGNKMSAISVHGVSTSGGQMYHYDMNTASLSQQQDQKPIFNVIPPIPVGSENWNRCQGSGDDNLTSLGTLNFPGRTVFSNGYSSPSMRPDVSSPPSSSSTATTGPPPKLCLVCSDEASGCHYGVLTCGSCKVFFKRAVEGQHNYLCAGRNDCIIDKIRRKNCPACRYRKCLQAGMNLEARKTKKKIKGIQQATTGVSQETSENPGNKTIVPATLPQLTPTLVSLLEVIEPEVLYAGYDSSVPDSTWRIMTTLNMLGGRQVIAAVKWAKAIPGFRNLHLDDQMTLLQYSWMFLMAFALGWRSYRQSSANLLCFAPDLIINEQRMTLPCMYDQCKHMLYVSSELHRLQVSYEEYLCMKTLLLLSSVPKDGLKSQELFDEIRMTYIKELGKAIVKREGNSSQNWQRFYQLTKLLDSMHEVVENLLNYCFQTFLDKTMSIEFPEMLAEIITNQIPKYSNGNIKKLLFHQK
Experimental: (§1) In vitro pharmacological profiling of compounds was done against 78 functional assays for 47 common off-targets (30) by Eurofins DiscoverX Corporation (Fremont, CA, USA) using their SAFETYscan E/IC50 ELECT service (Cat Ref 87-1003DR, Safety47 Panel Dose Response). The following assays were performed: (1) GPCR cAMP modulation, (2) calcium mobilization, (3) nuclear hormone receptor assays, (4) KINOMEscan binding assays, (5) ion channel assays, (6) transporter assays and (7) enzymatic assays. Compounds were tested in a range of 10 concentrations, following a 3-fold serial dilution, starting from 10 μM. The assays were performed utilizing the PathHunter enzyme fragment complementation (EFC) technology, FLIPR®-based cellular screening assays, and KINOMEscan kinase binding assays.
(§2) Prior to testing, PathHunter NHR cell lines were expanded from freezer stocks and cells were seeded in a total volume of 20 μL into white walled 384-well microplates and incubated at 37° C. […] Microplates were read following signal generation with a PerkinElmer Envision™ instrument for chemiluminescent signal detection. Compound activity was analysed using CBIS data analysis suite (ChemInnovation, CA). For agonist mode assays, percentage activity was calculated using the following equation:

[2] = biological target: T2, AR (Homo sapiens, UniProt P10275); experiment: NHR Nuclear Translocation AR Agonist
T2 construct: enzyme fragment for PathHunter enzyme fragment complementation (EFC)
T2 sequence (P10275 1-920): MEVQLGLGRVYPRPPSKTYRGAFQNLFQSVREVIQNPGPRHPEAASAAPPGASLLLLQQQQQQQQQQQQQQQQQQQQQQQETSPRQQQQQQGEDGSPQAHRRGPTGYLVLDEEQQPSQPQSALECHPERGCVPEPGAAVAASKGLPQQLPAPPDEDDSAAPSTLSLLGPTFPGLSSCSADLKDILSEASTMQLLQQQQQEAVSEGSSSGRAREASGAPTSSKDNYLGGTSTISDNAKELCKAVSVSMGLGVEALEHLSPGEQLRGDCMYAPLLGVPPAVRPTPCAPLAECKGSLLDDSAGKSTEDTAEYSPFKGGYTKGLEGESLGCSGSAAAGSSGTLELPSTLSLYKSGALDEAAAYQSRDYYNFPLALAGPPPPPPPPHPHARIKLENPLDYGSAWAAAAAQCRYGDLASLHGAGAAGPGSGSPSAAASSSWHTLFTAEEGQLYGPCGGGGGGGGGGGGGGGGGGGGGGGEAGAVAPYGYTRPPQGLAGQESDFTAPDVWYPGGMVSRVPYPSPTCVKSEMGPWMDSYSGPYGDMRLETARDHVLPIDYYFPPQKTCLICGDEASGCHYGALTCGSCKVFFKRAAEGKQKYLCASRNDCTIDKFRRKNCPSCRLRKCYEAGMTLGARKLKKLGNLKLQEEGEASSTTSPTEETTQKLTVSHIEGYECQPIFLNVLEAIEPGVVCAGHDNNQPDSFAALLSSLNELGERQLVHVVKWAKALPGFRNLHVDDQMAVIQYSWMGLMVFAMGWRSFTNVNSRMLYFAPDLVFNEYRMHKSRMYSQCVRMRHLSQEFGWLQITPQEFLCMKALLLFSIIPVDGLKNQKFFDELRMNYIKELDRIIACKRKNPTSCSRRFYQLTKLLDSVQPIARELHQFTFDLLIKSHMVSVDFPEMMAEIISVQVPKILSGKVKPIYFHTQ
Experimental: as §1, §2

[3] = biological target: T1, GR; experiment: NHR Protein Interaction GR Antagonist
Experimental: as §1, §2

[4] = biological target: T2, AR; experiment: NHR Nuclear Translocation AR Antagonist
Experimental: as §1, §2

Clc1cccc(C#Cc2n[nH]c3ncccc23)c1 [Compound 10.1, 3-((3-chlorophenyl)ethynyl)-1H-pyrazolo[3,4-b]pyridine]
Emax ([1]; read-out: Max response): 0% | EC50 ([1]; read-out: RC50, result type EC50): > 10 µM | EC50 [2]: > 10 µM | Emax ([2]; NHR Nuclear Translocation AR Agonist, read-out: Max response): 0% | Emax ([3]; read-out: Max response): 2.6% | IC50 ([3]; read-out: RC50, result type IC50): > 10 µM | IC50 [4]: > 10 µM | Emax ([4]; NHR Nuclear Translocation AR Antagonist, read-out: Max response): 4.6%
